Data on one molecule can be found in publication PMC6912361, “Systemic Toxicity Reported for CDK8/19 Inhibitors CCT251921 and MSC2530818 Is Not Due to Target Inhibition” (Cells, 2019).

SMILES strings stand for the structures. “And” between values parts separate entries of the source, which are not always exact repeats. Equal entries are not always repeated. Where two headings read alike, the source gives them in different places.

The target of series [1] is T1, GSK3β (Homo sapiens, UniProt P49841).
T1 construct: purchased Promega
T1 sequence (P49841 whole entry): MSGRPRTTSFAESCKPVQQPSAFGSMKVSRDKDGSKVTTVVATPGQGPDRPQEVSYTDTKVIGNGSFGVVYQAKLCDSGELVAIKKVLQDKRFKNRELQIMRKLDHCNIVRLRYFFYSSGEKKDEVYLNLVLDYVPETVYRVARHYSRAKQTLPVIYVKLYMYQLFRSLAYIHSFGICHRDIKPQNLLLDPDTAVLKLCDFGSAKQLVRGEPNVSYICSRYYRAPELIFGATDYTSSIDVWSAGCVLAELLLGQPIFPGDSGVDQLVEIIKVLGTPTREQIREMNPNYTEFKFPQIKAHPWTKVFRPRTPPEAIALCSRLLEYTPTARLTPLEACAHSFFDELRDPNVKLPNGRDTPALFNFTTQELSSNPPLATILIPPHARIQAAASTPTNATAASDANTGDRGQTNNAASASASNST
As to the kind of experiment: ADP-Glo Kinase Assay, GSK3β kinase activity. It is filed as biochemical. To be noted: 25 μM ATP, 60 min, room temperature. The protocol: Effects of different compounds on GSK3β kinase activity were evaluated using ADP-Glo^TM Kinase Assay kit and GSK3β Kinase Enzyme System (Promega, Madison, WI, USA). Kinase reactions were carried out at room temperature for 60 min. Each reaction contained 1 ng GSK3β enzyme, 25 μM ATP, 0.2 μg/μL GSK3 substrate and test compounds at different concentrations. Equal volume of ADP-Glo reagent was then added to kinase reaction and incubated at room temperature for 40 min, followed by the addition of Kinase Detection Reagent and incubation at room temperature for another 20 min. Bioluminescence signals were measured in 384-well plates using ChemiDoc Touch™ (Bio-Rad) and ImageLab software (Bio-Rad, Version 5.2.1 build 11). Effects of inhibitors were presented as relative kinase activity, calculated from […].
In general terms: In ADP-Glo the light output rises with the ADP produced.

The target of series [2] is T2, GSK3A (Homo sapiens, UniProt P49840).
T2 construct: purchased DiscoverX
T2 sequence (P49840 whole entry): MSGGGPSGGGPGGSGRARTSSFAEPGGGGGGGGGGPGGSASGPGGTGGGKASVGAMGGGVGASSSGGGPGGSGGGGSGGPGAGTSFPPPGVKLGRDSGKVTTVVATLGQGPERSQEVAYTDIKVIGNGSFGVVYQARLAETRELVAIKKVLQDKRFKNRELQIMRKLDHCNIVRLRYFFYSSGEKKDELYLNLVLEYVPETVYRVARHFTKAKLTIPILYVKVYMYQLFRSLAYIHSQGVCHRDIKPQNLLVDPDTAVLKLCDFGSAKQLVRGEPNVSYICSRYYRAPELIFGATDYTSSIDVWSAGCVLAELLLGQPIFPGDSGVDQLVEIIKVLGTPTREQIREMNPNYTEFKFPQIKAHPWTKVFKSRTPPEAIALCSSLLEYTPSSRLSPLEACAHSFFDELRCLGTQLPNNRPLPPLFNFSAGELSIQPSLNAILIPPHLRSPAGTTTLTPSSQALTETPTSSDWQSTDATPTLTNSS
As to the kind of experiment: KdELECT Kd determination, GSK3A. As to conditions: 11-point 3-fold serial dilution, duplicate; read-out: Kd for the inhibition of nucleotide binding, GSK3A. The procedure:
The screening platform employs an active site-directed competition binding assay to quantitatively measure interactions between test compounds and targeting kinases. […] To determine dissociation constants (Kds) of compounds on different targets, an 11-point 3-fold serial dilution of each test compound was tested in independent duplicate assays.
This assay has been previously used with many CDK8/19 inhibitors, including cortistatin A and its equipotent analog dCA [20, 21]; 15w.

For series [3], the system named is dechorionated zebrafish embryos (Danio rerio, AB strain). As to the kind of experiment: Zebrafish toxicity assay, mechanically dechorionated embryos (AB strain). It is filed as in vivo. To be noted: 1 μM; starting after 72 hpt. The protocol: The toxicity screen using dechorionated zebrafish embryos (Danio rerio, AB strain) was performed by Arkana Laboratories, Little Rock, AR, as a service. The toxicity of different CDK8/19 inhibitors was evaluated in sterile 96-well plates with U-shaped bottoms. 12 wells (i.e., biological replicates) per test chemical and the vehicle control (0.1% DMSO) were used and the experiment was performed in triplicate. Treatment was performed via addition of 20 µL of 10× concentrations of each tested compound in 1% DMSO-containing egg water to each well containing one 24 hpf (hours post fertilization) mechanically-dechorionated embryo in 180 µL volume of egg water (i.e., 0.1% final DMSO concentration). The fish embryos cultured at 28.5 °C were examined at 24, 48, 72 and 96 h post treatment (hpt) and scored as “healthy”, “abnormal” or “dead”. Phenotypes observed and assessed as abnormal included: cardiac edema (intermediate and severe stages), overall edema, enlarged head, malformation of the eyes, curved body axis, shortened body axis and malformation of the tail. […] Positive control 3,4-dichloroaniline (3,4-DCA) was tested at 8 mg/L.

Details of series [4]: method as in PMID 27935476. To be noted: colon cancer and leukemia mouse xenograft models; cited from earlier work.
The subject of series [5] is CDK8/19. Kind of series: Cell-based QPCR assay of CDK8/19-dependent gene expression, HEK293 parental (WT) cells. Also noted: species or system human. As to conditions: HEK293 WT, 1 h pre-treatment, then 10 ng/mL TNFα 2 h, QPCR.
Experimental: All cells were cultured in DMEM (high-glucose) media supplemented with 10% fetal bovine serum (FBS) and Penicillin-Streptomycin-Glutamine (1×) at 37 °C with 5% CO2 and routinely confirmed to be free of mycoplasma.
(§2) Total RNA was extracted using RNAeasy Mini Kit (Qiagen, Germantown, MD, USA) and 1 µg of total RNA was used to generate cDNA using iScript cDNA synthesis kit (Bio-Rad Laboratories, Hercules, CA, USA). Gene expression was quantified using iTaq Universal SYBR green super mix using CFX384 Real-Time System (Bio-Rad).
The IC50 values for different inhibitors in inhibiting CDK8/19-dependent gene expression were calculated using a three-parameter least square (ordinary) fitting method with GraphPad Prism 7.0 (GraphPad Software, San Diego, CA, USA).
(§3) Cells were pre-treated with different concentrations of CDK8/19 inhibitors for 1 h and then 10 ng/mL TNFα, an inducer of transcription factor NFκB, which is potentiated by CDK8/19 [5], was added for 2 h before RNA extraction. QPCR was carried out to quantify CDK8/19-regulated expression of NFκB-inducible genes CXCL1 and CXCL8 and the basal expression of MYC.
Series [6] concerns dogs. As to conditions: cited from earlier work.
Series [7] has as its target T3, GSK3B (Homo sapiens, UniProt P49841).
T3 construct: purchased DiscoverX
As to the kind of experiment: KdELECT Kd determination, GSK3B. As to conditions: 11-point 3-fold serial dilution, duplicate; read-out: Kd for the inhibition of nucleotide binding, GSK3B. The procedure:
(§1) To determine dissociation constants (Kds) of compounds on different targets, an 11-point 3-fold serial dilution of each test compound was tested in independent duplicate assays.

Series [8] has as its system rats. As to conditions: cited from earlier work.
The target in series [9] is T4, CDK19 (Homo sapiens, UniProt Q9BWU1). Kind of series: KdELECT Kd determination, CDK19. Type of series: binding. Also noted: purchased DiscoverX. The protocol:
as §1
Target sequence in this assay (Q9BWU1 whole entry): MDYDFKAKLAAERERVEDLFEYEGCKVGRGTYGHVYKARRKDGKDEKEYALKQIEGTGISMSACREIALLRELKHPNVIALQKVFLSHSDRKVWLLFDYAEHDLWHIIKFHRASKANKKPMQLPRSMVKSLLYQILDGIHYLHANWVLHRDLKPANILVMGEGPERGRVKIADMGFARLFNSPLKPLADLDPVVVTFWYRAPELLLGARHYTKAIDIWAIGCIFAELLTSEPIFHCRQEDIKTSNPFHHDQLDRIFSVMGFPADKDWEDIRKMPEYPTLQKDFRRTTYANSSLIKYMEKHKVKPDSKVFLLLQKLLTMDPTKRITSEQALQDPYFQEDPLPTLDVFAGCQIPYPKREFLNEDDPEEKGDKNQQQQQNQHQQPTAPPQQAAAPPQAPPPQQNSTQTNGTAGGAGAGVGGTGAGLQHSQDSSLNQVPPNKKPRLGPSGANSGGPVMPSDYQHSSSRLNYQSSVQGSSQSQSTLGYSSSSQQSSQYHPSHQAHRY

Series [10] concerns the target T4, CDK19. Kind of series: Cell-based QPCR assay of CDK8/19-dependent gene expression, HEK293 CDK8 single-knockout (8KO) cells. Details: CDK8 single-knockout (8KO); endogenous in cells; host or cells: HEK293 CDK8 knockout (8KO). As to conditions: 8KO, HEK293 8KO, 1 h pre-treatment, then 10 ng/mL TNFα 2 h.
Target sequence in this assay (Q9BWU1 whole entry): as above
Target sequence in this assay (P24863 whole entry partner): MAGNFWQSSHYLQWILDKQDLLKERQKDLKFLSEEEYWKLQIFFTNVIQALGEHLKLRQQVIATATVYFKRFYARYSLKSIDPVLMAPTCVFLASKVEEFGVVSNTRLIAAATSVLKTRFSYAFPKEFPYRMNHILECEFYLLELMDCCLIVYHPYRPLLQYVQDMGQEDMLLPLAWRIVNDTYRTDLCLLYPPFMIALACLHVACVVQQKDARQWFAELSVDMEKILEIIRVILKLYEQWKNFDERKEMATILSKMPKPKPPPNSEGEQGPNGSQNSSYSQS
Experimental: (§4) CDK8/CDK19 single knockout and double knockout derivatives of human embryonic kidney (HEK) 293 cells (ATCC CRL-1573) were generated as previously described [18]. All cells were cultured in DMEM (high-glucose) media supplemented with 10% fetal bovine serum (FBS) and Penicillin-Streptomycin-Glutamine (1×) at 37 °C with 5% CO2 and routinely confirmed to be free of mycoplasma.
as §2
(§5) The IC50 values for different inhibitors in inhibiting CDK8/19-dependent gene expression were calculated using a three-parameter least square (ordinary) fitting method with GraphPad Prism 7.0 (GraphPad Software, San Diego, CA, USA). The Kruskal–Wallis non-parametric ANOVA was used to compare gene expression levels under no-inhibitor conditions between wild-type cells and knockout derivatives (8KO, 19KO and dKO) with GraphPad Prism 7.0.
as §3
Series [11] deals with T5, CDK8 (Homo sapiens, UniProt P49336). Kind of series: Cell-based QPCR assay of CDK8/19-dependent gene expression, HEK293 CDK19 single-knockout (19KO) cells. Details: CDK19 single-knockout (19KO); endogenous in cells; host or cells: HEK293 CDK19 knockout (19KO). To be noted: 19KO, HEK293 19KO, 1 h pre-treatment, then 10 ng/mL TNFα 2 h.
Target sequence in this assay (P49336 whole entry): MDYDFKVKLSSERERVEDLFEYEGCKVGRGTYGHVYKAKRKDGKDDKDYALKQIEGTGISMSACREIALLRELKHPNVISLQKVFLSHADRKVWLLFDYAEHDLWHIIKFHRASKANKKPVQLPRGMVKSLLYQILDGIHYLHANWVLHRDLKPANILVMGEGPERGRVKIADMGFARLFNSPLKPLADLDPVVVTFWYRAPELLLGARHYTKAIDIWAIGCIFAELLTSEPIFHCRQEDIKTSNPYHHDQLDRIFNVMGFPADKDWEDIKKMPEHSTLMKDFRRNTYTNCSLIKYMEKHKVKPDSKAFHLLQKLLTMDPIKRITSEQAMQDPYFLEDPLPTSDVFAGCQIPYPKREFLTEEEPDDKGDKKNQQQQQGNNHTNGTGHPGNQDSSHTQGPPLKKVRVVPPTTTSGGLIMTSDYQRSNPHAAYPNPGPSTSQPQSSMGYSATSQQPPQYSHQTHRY
Target sequence in this assay (P24863 whole entry partner): as the sequence (P24863 whole entry partner) above
Experimental: as §4, §2, §5, §3
Series [12] concerns non-dechorionated embryos of zebrafish TU strain. As to the kind of experiment: Zebrafish toxicity assay, non-dechorionated embryos (TU strain). To be noted: all the tested concentrations (0.5 μM, 1 μM and 2 μM); 3-5 days. Type of series: in vivo. The protocol: The toxicity studies in non-dechorionated embryos of zebrafish TU strain were approved by the Institutional Animal Care and Use Committee of the University of South Carolina. The studies were conducted in sterile 24-well plates with one 24 hpf embryo in each well in a 1 mL volume of egg water. For each plate, 6 wells were treated with vehicle control and the other 18 wells (i.e., biological replicates) were treated with different CDK8/19 inhibitors at different concentrations. […] All the data from the plates with at least five healthy vehicle-treated embryos on day 5 were compiled together for final data analysis.

The target in series [13] is T5, CDK8. As to the kind of experiment: KdELECT Kd determination, CDK8. It is filed as binding. Details: purchased DiscoverX. The protocol: as §1
Target sequence in this assay (P49336 whole entry): as the sequence (P49336 whole entry) above

T3 sequence (P49841 whole entry): as the sequence (P49841 whole entry) above

Turning to `Cc1n[nH]c2ncc(C(=O)N3CCC[C@H]3c3ccc(Cl)cc3)cc12` [Cmpd4], the IC50 (in general, the point on the concentration scale where inhibition reaches its midpoint) is ~400 nM and 396 nM in series [1]; 1.8 nM in [5] (read-out: IC50, CXCL1 mRNA expression, WT); 2.1 nM in series [5] (read-out: IC50, CXCL8 mRNA expression, WT); 2.4 nM in series [5] (read-out: IC50, MYC mRNA expression, WT); 2.4 nM in series [10] (IC50, CXCL1 mRNA expression); 1.9 nM in series [10] (IC50, CXCL8 mRNA expression). In addition, the IC50 amounted to 1.4 nM in [10] (IC50, MYC mRNA expression); 3.2 nM in [11] (IC50, CXCL1 mRNA expression); 3.1 nM in [11] (IC50, CXCL8 mRNA expression); 1.9 nM in [11] (IC50, MYC mRNA expression). Further, the Kd (as a rule, the equilibrium constant for the complex coming apart) in [2] is 450 nM; in series [7] it was 190 nM; in series [9] it was 94 nM; in [13], 115 nM. Moreover, in series [3], the “Toxicity in dechorionated AB zebrafish larvae” value is “severe toxicity”. Moreover, in [4], the “Weight loss in mice” value is recorded as “detectable weight loss”. Moreover, the Toxicity in dogs entry in series [6] was “multiple and striking toxicities, including lethality”. Besides, the Toxicity in rats entry in series [8] is “multiple and striking toxicities, including lethality”. Also, the “Toxicity in TU strain zebrafish embryos” value in [12] is given as “very strong toxicity”.
